Experimental data taken from publication PMC2211560 (PLoS Medicine, 2008).
Several values for one entry are separate records, joined by “and”; a condition that tells them apart may be missing. Identical values can stand only once.

What was measured:
[1] = tested on: short-term cultures derived from tumors; experiment: Ex vivo rapamycin response of short-term tumor cultures (S6 immunoblot); type: cell-based, human; conditions: 0.3 and 3.0 nM, 8 h; rapamycin-sensitive (patients 1 and 3) and rapamycin-resistant (patients 2 and 12) samples
Source text: The lower and upper end of the box corresponds to the 25th and 75th percentile, respectively. The whiskers extend to the 95% range. The Wilcoxon nonparametric group comparison test was used to calculate p-values for the differences between different patient groups. […] The horizontal line inside the box indicates the median value. The lower and upper border of the box corresponds to the 25th and 75th percentile, respectively. The whiskers extend to the 95% range.

[2] = tested on: recurrent PTEN-deficient glioblastoma; experiment: Clinical outcome: time-to-progression and radiographic response; type: in vivo, human; conditions: for TTP: interval between start of rapamycin and postoperative treatment failure, individual patients
Source text: Figure 1 Clinical Trial Design Enrollment in the Phase I clinical trial was restricted to patients whose initial tumor resection (“surgery 1”) specimen was PTEN-deficient by immunohistochemistry. Patients were enrolled after failing standard therapy with radiation and chemotherapy (i.e., “tumor recurrence”).
Patients were allowed two dose reductions.

[3] = tested on: mTOR; experiment: S6 ribosomal protein phosphorylation in tumor tissue by IHC (S2 versus S1); type: in vivo, human; conditions: ratio of median IHC staining score S2 to S1, individual patients
Source text: (§1) To quantify mTOR activity in matched S1 and S2 samples, we measured phosphorylation of S6 ribosomal protein by immunohistochemistry using two distinct phosphosite antibodies directed against Ser235/236 or Ser240/244. […] Immunohistochemistry (IHC) scoring is described in detail in Text S1.
The following antibodies were used for IHC: anti-PTEN (6H2.1, #ABM-2052, Cascade BioScience; 1:400 dilution), anti-Ki-67 (MIB-1, M7240, DakoCytomation; 1:100 Dilution), anti-phospho Ser235/236 S6 (91B2, #4857, Cell Signaling; 1:50 dilution), anti phospho Ser240/244 S6 (#2215, Cell Signaling; 1:200 dilution), anti-phospho-PRAS 40 (#44–1100G, Biosource; 1:200 dilution), anti-phospho Ser473 Akt (736E11, #3787, Cell Signaling; 1:50 dilution), anti-phospho Thr389 p70 S6 Kinase (#9205, Cell Signaling; 1:100 Dilution), and anti phospho Ser1108 eIF4G at 1:400 (#2441, Cell Signaling; 1:400 dilution). Antigen retrieval was performed using 0.01 M citrate buffer, pH 6.0 for 30 min in an oven and peroxidase activity was quenched with 3% hydrogen peroxide in water. Primary antibodies were diluted in PBS /2% bovine serum albumin/2% normal horse serum (for anti-PTEN) or TBS/0.1% Tween/5% normal goat serum (for phosphosite-specific antibodies) and applied overnight at 4 °C. Biotinylated secondary antibodies (Vector) were applied at 1:200 dilution for 45 min, and the avidin-biotin complex (Elite ABC, Vector) for 30 min. Vector NovaRed was used as the enzyme substrate to visualize specific antibody localization. […] All slides were counterstained with Harris hematoxylin.
To quantify mTOR activity, we measured phosphorylation of S6 ribosomal protein by immunohistochemistry. S6 is a direct substrate of S6 kinase 1, a downstream effector of mTOR action, and has been widely used as a pharmacodynamic readout of mTOR inhibition in preclinical studies. To ensure specificity, we used two distinct phosphosite antibodies directed against Ser235/236 or Ser240/244 (Figure 2B). Both sites are directly phosphorylated by S6 kinase 1, but Ser235/236 can also be phosphorylated by p90 ribosomal S6 kinase (RSK) and other kinases. All measurements were quantified by digital readout of 2,500–5,000 tumor cells per slide cut from paraffin-embedded tissue (Figure S1).
Supplementary file pmed.0050008.sg001.pdf: Figure S1 Digital Scoring of Immunohistochemical Stains Adjacent tissue sections from each tumor were stained with antibodies against Ki-67, phospho S6 ribosomal protein (S6RP), phospho-PRAS40, and PTEN (unpublished data). Five areas per slide, each representing approximately 500–1,000 tumor cells, were selected for digital scoring. Image conversion and scoring was performed using Soft Imaging System Software. The distribution of immunoreactivity within these 2,500–5,000 cells was graphed for each sample as a box plot. The “fold change” (F.C.) in S6 immunoreactivity (Table 2 and Figure S2) was calculated for each tumor as the ratio between median staining score in the S2 and the median staining score in the S1 sample. (135 KB PDF) Click here for additional data file.
Scoring of immunohistochemical stains. Immunohistochemical screening of tumor samples for PTEN expression was based on a manual scoring method which compares PTEN staining of tumor cells to the PTEN staining of endothelial cells within the same viewfield and assigns scores of 0 (absent in tumor cells), 1 (reduced in tumor cells relative to endothelial cells), and 2 (tumor cells staining similar to endothelial cells). Digital scores for PTEN, phospho-S6, and phospho-PRAS40 are based on absolute staining intensity of tumor cells as quantified following false-color conversion.

[4] = tested on: PTEN-deficient glioblastoma; experiment: Ki-67 labeling index of tumor tissue (S2 versus S1); type: in vivo, human; conditions: for Ki-67 Decrease: about 1 wk pre-operative, S2 vs S1, individual patients
Source text: as §1
The following antibodies were used for IHC: anti-PTEN (6H2.1, #ABM-2052, Cascade BioScience; 1:400 dilution), anti-Ki-67 (MIB-1, M7240, DakoCytomation; 1:100 Dilution), anti-phospho Ser235/236 S6 (91B2, #4857, Cell Signaling; 1:50 dilution), anti phospho Ser240/244 S6 (#2215, Cell Signaling; 1:200 dilution), anti-phospho-PRAS 40 (#44–1100G, Biosource; 1:200 dilution), anti-phospho Ser473 Akt (736E11, #3787, Cell Signaling; 1:50 dilution), anti-phospho Thr389 p70 S6 Kinase (#9205, Cell Signaling; 1:100 Dilution), and anti phospho Ser1108 eIF4G at 1:400 (#2441, Cell Signaling; 1:400 dilution). Antigen retrieval was performed using 0.01 M citrate buffer, pH 6.0 for 30 min in an oven and peroxidase activity was quenched with 3% hydrogen peroxide in water. Primary antibodies were diluted in PBS /2% bovine serum albumin/2% normal horse serum (for anti-PTEN) or TBS/0.1% Tween/5% normal goat serum (for phosphosite-specific antibodies) and applied overnight at 4 °C. […]
Scoring of immunohistochemical stains. […] Digital scores for PTEN, phospho-S6, and phospho-PRAS40 are based on absolute staining intensity of tumor cells as quantified following false-color conversion. PTEN, phospho-S6, phospho-PRAS40, and Ki-67 were scored in representative and matching areas of consecutive tissue sections (Suppl. Fig. 1), excluding areas with large vessels and/or prominent reactive changes (e.g., reactive astrogliosis or lymphocytic infiltration). […] Quantitative analysis was done using HSI color algorithm based on hue, saturation and intensity. Saturations of the separated cell in the images were quantified in the red-brown hue range to exclude the negative staining area with hematoxylin nuclear staining. To compare the staining intensity of all slides, mean saturation of total cells on each image was quantified and calculated. For Ki-67 staining scoring, separated cells were quantified with red brown hue range (positive staining) and total hue range (all cells) after cell border separation and Ki-67 labeling index was calculated based on these numbers. For p-PRAS40 scoring, mean saturation of the positive staining tumor cells was quantified in the red-brown hue range, followed by multiplying the positive cell ratio in the same image to evaluate both staining intensity and staining distribution. pS473 Akt was quantified on a scale of 0-2; 0^+ = no staining, 1^+ = mild intensity cytoplasmic staining, and 2^+ = strong cytoplasmic staining. […]

[5] = tested on: cytochrome P450 isoenzyme 3A4; conditions: cited from earlier work

For `CO[C@H]1C[C@@H]2CC[C@@H](C)[C@@](O)(O2)C(=O)C(=O)N2CCCC[C@H]2C(=O)O[C@H]([C@H](C)C[C@@H]2CC[C@@H](O)[C@H](OC)C2)CC(=O)[C@H](C)/C=C(\C)[C@@H](O)[C@@H](OC)C(=O)[C@H](C)C[C@H](C)/C=C/C=C/C=C/1C` [Rapamycin], the “S6 phosphorylation ex vivo” value [1] was “inhibited equally”, the TTP ([2]; 2 mg oral daily) was 62 days and 40 days and 70 days and the TTP ([2]; 5 mg oral daily) was 194 days and 69 days and 144 days and 153 days and 42 days. For the same compound, the TTP ([2]; 10 mg oral daily) was 39 days and 538 days and 98 days and 146 days and 99 days and 55 days, the “tumor regression by magnetic resonance imaging” value ([2]; Patient 8, extended neoadjuvant course (25 d), 5 mg, prior to surgery) was over 50% and the “duration of radiographically stable disease postoperatively” value ([2]; Patient 11) was over 16 mo. The “time from starting rapamycin to death without evidence of tumor recurrence” value ([2]; Patient 11, 10 mg) was 538 days, the “Radiographic Response to Rapamycin” value ([2]; single-agent rapamycin, study patients) was 2/15 and the “pS6 S2/S1 pSer235/236” value ([3]; 2 mg oral daily) was 0.46 and 1.01. The “pS6 S2/S1 pSer240/244” value ([3]; 2 mg oral daily) was 0.61 and 0.82 and 0.85, the “pS6 S2/S1 pSer235/236” value ([3]; 5 mg oral daily) was 0.91 and 0.48 and 0.22 and 0.77 and 1.16 and the “pS6 S2/S1 pSer240/244” value ([3]; 5 mg oral daily) was 0.94 and 0.51 and 0.18 and 0.58 and 0.54. For the same compound, the “pS6 S2/S1 pSer235/236” value ([3]; 10 mg oral daily) was 0.78 and 0.55 and 0.19 and 0.81 and 1.50 and 0.60, the “pS6 S2/S1 pSer240/244” value ([3]; 10 mg oral daily) was 0.27 and 0.58 and 0.44 and 0.60 and 0.56 and 0.91 and the “Ki-67 Decrease” value ([4]; 2 mg oral daily) was “Yes and No”. The “Ki-67 Decrease” value ([4]; 5 mg oral daily) was “No and Yes”, the “Ki-67 Decrease” value ([4]; 10 mg oral daily) was “Yes and No” and the “patients with nearly complete inhibition (dramatic reduction) of tumor cell proliferation” value ([4]; Ki-67 staining after about 1 wk of rapamycin) was “seven of 14 and 7/14”. For the same compound, the “cytochrome P450 substrate” value [5] was “substrate for the cytochrome P450 isoenzyme 3A4”.
